These results are taken from US8791130B2, “Aminopyrimidine derivatives as LRRK2 modulators” (Genentech, Inc., priority 2011, dated 2014).

LRRK2, sequence (Q5S007 970-2527 G2019S): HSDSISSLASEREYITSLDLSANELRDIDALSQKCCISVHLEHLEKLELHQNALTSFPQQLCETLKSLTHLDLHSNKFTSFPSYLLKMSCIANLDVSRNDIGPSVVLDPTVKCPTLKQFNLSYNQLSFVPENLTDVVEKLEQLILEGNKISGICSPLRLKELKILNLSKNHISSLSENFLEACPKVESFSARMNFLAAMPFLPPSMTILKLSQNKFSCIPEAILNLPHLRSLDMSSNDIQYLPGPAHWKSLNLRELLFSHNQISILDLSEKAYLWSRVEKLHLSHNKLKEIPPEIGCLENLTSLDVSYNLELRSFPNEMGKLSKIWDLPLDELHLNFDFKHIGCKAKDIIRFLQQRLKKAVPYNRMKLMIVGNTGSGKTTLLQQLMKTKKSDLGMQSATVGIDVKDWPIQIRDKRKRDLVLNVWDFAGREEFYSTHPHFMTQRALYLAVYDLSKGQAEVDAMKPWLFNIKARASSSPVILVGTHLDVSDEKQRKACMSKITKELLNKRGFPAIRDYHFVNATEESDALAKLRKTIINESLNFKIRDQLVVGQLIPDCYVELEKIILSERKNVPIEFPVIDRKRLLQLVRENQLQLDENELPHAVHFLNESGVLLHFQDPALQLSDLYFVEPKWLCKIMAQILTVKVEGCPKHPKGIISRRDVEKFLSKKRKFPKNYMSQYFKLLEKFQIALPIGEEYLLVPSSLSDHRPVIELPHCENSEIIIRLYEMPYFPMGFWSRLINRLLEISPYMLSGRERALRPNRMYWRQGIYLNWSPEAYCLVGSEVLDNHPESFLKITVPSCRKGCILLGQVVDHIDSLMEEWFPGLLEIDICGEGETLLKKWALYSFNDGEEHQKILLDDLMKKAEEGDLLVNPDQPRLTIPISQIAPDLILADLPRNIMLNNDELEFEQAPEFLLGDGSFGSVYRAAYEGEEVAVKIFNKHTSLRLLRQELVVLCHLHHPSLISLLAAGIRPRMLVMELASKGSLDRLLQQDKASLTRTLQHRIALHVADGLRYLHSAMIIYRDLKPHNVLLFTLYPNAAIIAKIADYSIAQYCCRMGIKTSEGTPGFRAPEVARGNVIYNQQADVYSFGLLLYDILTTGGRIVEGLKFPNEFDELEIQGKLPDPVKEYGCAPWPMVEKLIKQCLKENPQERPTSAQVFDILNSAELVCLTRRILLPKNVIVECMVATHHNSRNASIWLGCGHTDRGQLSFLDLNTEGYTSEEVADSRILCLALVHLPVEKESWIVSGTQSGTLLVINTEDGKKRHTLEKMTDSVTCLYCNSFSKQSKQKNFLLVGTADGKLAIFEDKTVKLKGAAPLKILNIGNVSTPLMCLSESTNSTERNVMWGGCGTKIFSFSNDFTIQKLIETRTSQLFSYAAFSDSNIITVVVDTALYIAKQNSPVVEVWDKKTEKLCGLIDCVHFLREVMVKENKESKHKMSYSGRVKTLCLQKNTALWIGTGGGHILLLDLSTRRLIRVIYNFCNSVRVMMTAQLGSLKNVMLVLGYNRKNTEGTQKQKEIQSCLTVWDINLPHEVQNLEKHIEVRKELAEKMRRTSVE

This test deals with LRRK2 (Homo sapiens (Human), UniProt Q5S007, G2019S). Nature of the test: In Vitro LRRK2 LabChip Assay (LRRK2 Ki). The test is classed as biochemical. As for the experimental part:
In Vitro LRRK2 LabChip Assay This assay was used to determine a compound's potency in inhibiting activity of LRRK2 by determining, Kiapp, IC50, or percent inhibition values. In a polypropylene plate, LRRK2, fluorescently-labeled peptide substrate, ATP and test compound were incubated together. Using a LabChip 3000 (Caliper Life Sciences), after the reaction the substrate was separated by capillary electrophoresis into two populations: phosphorylated and unphosphorylated. The relative amounts of each were quantitated by fluorescence intensity. LRRK2 Ki was determined according to the equation: […]))). Ki values in Table 4 and elsewhere herein are shown in μM. […] Substrate: 5[…] Non-binding plate: 384 well clear V-bottom polypropylene plates (Greiner cat #781280). ATP: 10 mM ATP (Cell Signaling cat #9804). Triton X-100: Triton X-100. Brij-35: Brij-35 (Pierce cat #20150). […] DMSO: DMSO (Sigma cat #34869-100 ML). […] Compound Plate Preparation: For serial dilutions, 34.6 μl DMSO was added to columns 3-24. For the assay controls, 37.5 μl DMSO was added to columns 1 and 2 of rows A and […]-028831 (Staurosporine) was added to columns 1 and 2, row B. […] A Precision instrument was used to perform 1:3.16 serial dilutions (“PLK_BM_serial_halflog”). ATP Preparation: ATP was diluted to 282.1 μM in Complete Kinase Buffer (final concentration was 130 μM). […] Assay Procedure: To a 50 μl polypropylene plate, 5 μl/well buffer/substrate was added by hand to Blank wells. A Biomek FX was used to start the kinase reaction (“PLK SAR 23 ATP”). […] 5 μl/well kinase/substrate in Assay Plate; The plate was incubated for 2 hours in the dark. Biomek FX was used to stop the kinase reaction (“PLK Stop”), and 10 μl/well Stop solution was added to the Assay Plate.
`CNc1nc(Nc2cc(OC)c(-c3nnc(C)o3)cc2Cl)ncc1Cl` [Compound 37, 5-chloro-N^2-(2-chloro-5-methoxy-4-(5-methyl-1,3,4-oxadiazol-2-yl)phenyl)-N^4-methylpyrimidine-2,4-diamine]: the Ki (commonly the equilibrium dissociation constant of an inhibitor or competing ligand from its target) amounted to 12 nM.
Molecule `CNc1nc(Nc2ccc(-c3c(C)noc3C)cc2OC)ncc1C(F)(F)F` [Compound 26, N^2-(4-(3,5-dimethylisoxazol-4-yl)-2-methoxyphenyl)-N^4-methyl-5-(trifluoromethyl) pyrimidine-2,4-diamine] displayed a Ki of 1 nM.
`CNc1nc(Nc2ccc(-n3nc(C)cc3COC)cc2OC)ncc1C(F)(F)F` [Compound 48, N2-(2-methoxy-4-(5-(methoxymethyl)-3-methyl-1H-pyrazol-1-yl)phenyl)-N4-methyl-5-(trifluoromethyl) pyrimidine-2,4-diamine] returned a Ki of 10 nM.
`CNc1nc(Nc2ccc(-c3nnnn3C)cc2Cl)ncc1C(F)(F)F` [Compound 2, N2-(2-chloro-4-(1-methyl-1H-tetrazol-5-yl)phenyl)-N4-methyl-5-(trifluoromethyl) pyrimidine-2,4-diamine] registered a Ki of 7 nM.
For the molecule `CNc1nc(Nc2cc(OC)c(-c3c(C)nn(C)c3C)cc2Cl)ncc1C(F)(F)F` [Compound 24, N^2-(2-chloro-5-methoxy-4-(1,3,5-trimethyl-1H-pyrazol-4-yl)phenyl)-N^4-methyl-5-(trifluoromethyl) pyrimidine-2,4-diamine], the inhibitory constant (Ki) worked out at 3 nM. This Ki lies about 2.3-fold lower than the previous one.
Molecule `CNc1nc(Nc2ccc(-c3nnn[nH]3)cc2Cl)ncc1C(F)(F)F` [Compound 1, N2-(2-chloro-4-(2H-tetrazol-5-yl)phenyl)-N4-methyl-5-(trifluoromethyl) pyrimidine-2,4-diamine] came in with a Ki of 3 nM.
`CNc1nc(Nc2cc(OC)c(-c3cnn(C)c3)cc2Cl)ncc1C(F)(F)F` [Compound 32, N^2-(2-chloro-5-methoxy-4-(1-methyl-1H-pyrazol-4-yl)phenyl)-N^4-methyl-5-(trifluoromethyl) pyrimidine-2,4-diamine] displayed an inhibition constant (Ki) of 11 nM.
For `CNc1nc(Nc2ccc(-c3nccn3C)cc2OC)ncc1Cl` [Compound 15, 5-chloro-N^2-(2-methoxy-4-(1-methyl-1H-imidazol-2-yl)phenyl)-N^4-methylpyrimidine-2,4-diamine], the Ki worked out at 7 nM.
In the case of `CNc1nc(Nc2ccc(-c3nnn(C)n3)cc2OC)ncc1C(F)(F)F` [Compound 18, N^2-(2-methoxy-4-(2-methyl-2H-tetrazol-5-yl)phenyl)-N^4-methyl-5-(trifluoromethyl) pyrimidine-2,4-diamine], affinity was put at a Ki of 10 nM.
Regarding `CNc1nc(Nc2ccc(-c3cncn3C)cc2OC)ncc1Cl` [Compound 16, 5-chloro-N2-(2-methoxy-4-(1-methyl-1H-imidazol-5-yl)phenyl)-N4-methylpyrimidine-2,4-diamine], the Ki amounted to 2 nM. This Ki lies about 5-fold lower than the previous one.
For `CNc1nc(Nc2cc(OC)c(-c3ccnn3C)cc2Cl)ncc1C(F)(F)F` [Compound 28, N^2-(2-chloro-5-methoxy-4-(1-methyl-1H-pyrazol-5-yl)phenyl)-N^4-methyl-5-(trifluoromethyl) pyrimidine-2,4-diamine] the value was 5 nM; for `CNc1nc(Nc2cc(OC)c(-c3nc(C)no3)cc2Cl)ncc1C(F)(F)F` [Compound 31, N^2-(2-chloro-5-methoxy-4-(3-methyl-1,2,4-oxadiazol-5-yl)phenyl)-N^4-methyl-5-(trifluoromethyl) pyrimidine-2,4-diamine], 41 nM.
For `CNc1nc(Nc2cc(F)c(-c3cnnn3C)cc2OC)ncc1C(F)(F)F` [Compound 43, N2-(5-fluoro-2-methoxy-4-(1-methyl-1H-1,2,3-triazol-5-yl)phenyl)-N4-methyl-5-(trifluoromethyl) pyrimidine-2,4-diamine], the inhibition constant (Ki) was 2 nM.
In the case of `CNc1nc(Nc2ccc(-c3cnoc3)cc2OC)ncc1Cl` [Compound 14, 5-chloro-N^2-(4-(isoxazol-4-yl)-2-methoxyphenyl)-N^4-methylpyrimidine-2,4-diamine], the Ki is 15 nM. This Ki lies about 7.5-fold higher than the previous one.
